Measurements: PMC6350621, “Small-molecules that covalently react with a human prolyl hydroxylase – towards activity modulation and substrate capture” (Chemical Communications (Cambridge, England), 2018)

Tests used:
Type in all cases: binding
PHD2_181–418 = target: T1, PHD2_181–418 (Homo sapiens, UniProt Q9GZT9); assay: Non-denaturing ESI-MS crosslinking, 418 truncate; details: equimolar FeSO4 and compound, 3 h, 37 °C, 200 V
T1 construct: Both the 418 (PHD2_181–418); His6 (N, cleaved yes); made in house; host or cells: bacterial culture (2x TY, kanamycin, IPTG)
T1 sequence (Q9GZT9 181-418): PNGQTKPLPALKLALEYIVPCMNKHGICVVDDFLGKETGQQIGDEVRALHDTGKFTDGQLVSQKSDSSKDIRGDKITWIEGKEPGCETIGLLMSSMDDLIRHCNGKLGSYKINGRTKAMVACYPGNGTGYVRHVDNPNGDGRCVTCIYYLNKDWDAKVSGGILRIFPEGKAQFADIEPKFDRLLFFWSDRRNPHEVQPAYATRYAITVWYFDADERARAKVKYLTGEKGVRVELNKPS
Description: The site of crosslinking of 3 was investigated using protein variants. First, 3 was incubated with C-terminal truncated PHD2 (PHD2_181–402) and a loop deletion variant (deletion of residues 238–250, PHD2Δ). […] Thus, 3 was incubated with PHD2 constructs truncated at residues 402, 410, 414 and 418. […] Crosslinking experiments with PHD2 R411M implied that R411 is not directly involved in crosslinking (Fig. S11, ESI ^†).
Fig. S8 Temperature dependence of the rate of crosslinking of 3 with PHD2. PHD2 (20 µM) was incubated with equimolar Fe(II) and 3 in buffer (50 mM Tris, 150 mM NaCl, pH 7.5) at 4, 20 and 37 °C. The ratio of crosslinking after 1, 2, and 4 h was determined by ESI-MS under denaturing conditions (n = 2), error bars represent 1 standard deviation.
Fig. S9 Ratio of crosslinked PHD2.3 before evaluation of catalytic activity. Labelled peaks correspond to: (A): PHD2, […]
Fig. S10 Non-denaturing ESI-MS analysis of (a) PHD2 and its C-terminal truncations (b) PHD2181-418; (c) PHD2181-414;
(d) PHD2181-410; (e) PHD2181-402 in the presence of equimolar amounts of FeSO4 and 3 after 3 hours incubation at 37 °C in ammonium acetate (15 mM, pH 7.5) at a sample cone voltage of 200V. Peaks present: (A): PHD2.Fe; (B): PHD2181-

PHD1 = PHD1 (Homo sapiens, UniProt Q96KS0); assay: Denaturing MS covalent adduct formation with PHD1; details: enzyme 20 μM, Fe(II) 30 μM, compound 30 μM, 37 °C, 4 h
Sequence of PHD1 (Q96KS0 whole entry): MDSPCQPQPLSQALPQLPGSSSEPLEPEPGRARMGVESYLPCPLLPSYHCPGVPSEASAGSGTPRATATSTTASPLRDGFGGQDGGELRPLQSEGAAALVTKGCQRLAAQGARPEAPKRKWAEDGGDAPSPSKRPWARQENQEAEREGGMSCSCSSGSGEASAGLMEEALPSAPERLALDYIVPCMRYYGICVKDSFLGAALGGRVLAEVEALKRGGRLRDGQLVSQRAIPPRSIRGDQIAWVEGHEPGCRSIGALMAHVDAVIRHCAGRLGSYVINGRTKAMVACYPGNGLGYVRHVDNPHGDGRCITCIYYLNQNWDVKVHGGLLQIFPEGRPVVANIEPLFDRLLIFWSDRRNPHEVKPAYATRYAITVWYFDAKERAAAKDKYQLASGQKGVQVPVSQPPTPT

PHD2_181–426 = target: T2, PHD2_181–426 (Homo sapiens, UniProt Q9GZT9); assay: Non-denaturing ESI-MS of covalent adduct formation with PHD2; details: equimolar PHD2/Fe(II), 37 °C
T2 construct: PHD2_181–426 (hereafter PHD2); His6 (N, cleaved yes); made in house; host or cells: bacterial culture (2x TY, kanamycin, IPTG)
T2 sequence (Q9GZT9 181-426): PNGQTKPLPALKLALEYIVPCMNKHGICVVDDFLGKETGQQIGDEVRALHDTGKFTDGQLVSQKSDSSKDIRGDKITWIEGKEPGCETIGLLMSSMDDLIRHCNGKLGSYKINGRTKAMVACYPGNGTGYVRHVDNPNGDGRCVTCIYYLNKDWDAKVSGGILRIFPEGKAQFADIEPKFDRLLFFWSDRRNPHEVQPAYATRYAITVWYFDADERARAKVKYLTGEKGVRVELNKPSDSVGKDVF
Description: The interaction of the ligands with PHD2_181–426 (hereafter PHD2) was examined by non-denaturing ESI-MS, using cone voltage variation to distinguish covalent and non-covalent complexes (non-covalent interactions are typically preserved at cone voltages of 50–80 V, and dissociated at 200 V).[16]–[18] Aldehydes 1 and 2 were incubated with equimolar PHD2 and Fe(II) (37 °C; 5 or 20 min). […] Without Fe(II), neither covalent nor non-covalent adducts were observed, implying covalent conjugation involves active site Fe(II) binding, with subsequent condensation.
Fig. S2 A) Schematic representation of the assigned species formed on addition of 1 or 2 to PHD2. The results support initial non-covalent binding of the inhibitors to PHD2.Fe(II) to form B. Subsequently, condensation of a lysine residue with the aldehyde forms the covalent adduct C. (B) and (C): Non-denaturing ESI-MS data support the covalent crosslinking of 1/2 with PHD2. Conditions: PHD2 (20 µM) was incubated (37 °C, 5 or 20 min) with equimolar FeSO4 and 1 or 2, and the resulting mixtures were analysed by ESI-MS (cone voltage: 50 V or 200 V). Labelled peaks correspond to: A: Unmodified PHD2.Fe. B: Non-covalent adduct PHD2.Fe.2. C: Covalent adduct PHD2.Fe.1/2.
Fig. S6 The α,β-unsaturated amide 3 can covalently modify PHD2. (A) Schematic representation of the adducts formed upon incubation of 3 with PHD2.
PHD2. PHD2 (20 µM) was incubated (37 °C, 5 min, 1 h or 2 h) with equimolar FeSO4 and 3 or 4 before analysis by ESI-MS (cone voltage: 50 V or 200 V). Labelled peaks correspond to the following assigned complexes: A: unmodified PHD2.Fe; B: the non-covalent PHD2.Fe.3 adduct; C: the covalent PHD2.Fe.3 adduct.
2. Experimental procedures
1.1.1 Non-denaturing mass spectrometry1
Apo PHD2 was desalted using a Bio-Spin 6 Column (Bio-Rad, Hemel Hempstead, UK) into 15 mM ammonium acetate (pH 7.5). The stock solution was diluted with the same buffer to a final concentration of 100 μM. FeSO4·7H2O was dissolved in 20 mM HCl at a concentration of 100 mM. This solution was then diluted with MilliQ purified water to give a final working concentration of 100 μM. The protein was mixed with the Fe(II) solution and the inhibitor solution to give final concentrations of 20 μM PHD2, 20 μM Fe(II), and 20 μM inhibitor. The resultant solution was incubated for the appropriate time (specified in the text) at 37 […]
(5 min or 20 min) at 37 °C. After incubation, the samples were immediately analysed by ESI-MS. Data were acquired using a Q-TOF mass spectrometer (Q-TOF micro, Micromass, Altrincham, UK) interfaced with a Nanomate (Advion Biosciences, Ithaca, NY, USA) with a chip voltage of 1.70 kV and a delivery pressure 0.5 psi (1 psi = […]). The sample cone voltage was typically 200 or 50 V with a source temperature of 40 °C and with an acquisition/scan time of 10s/1s. Sample acquisition was performed in positive ion mode in the range of 2000-4000 m/z. The pressure at the interface between the atmospheric source and the high vacuum region was fixed at 6.30 mbar. External instrument calibration was achieved using sodium iodide.

SMILES: C=CC(=O)Nc1cccc(C(=O)NCC(=O)O)c1O [compound 3]
- covalent modification of 418 truncate (PHD2_181–418): covalently modified
- covalent reaction with PHD1 (PHD1): did not covalently react
- conversion to the covalent adduct after 1 h (PHD2_181–426; 1 h): 1/3
- conversion to the covalent adduct after 2 h (PHD2_181–426; 2 h): 2/3
